Data published in ChEMBL document CHEMBL4627415, “Design and Structural Optimization of Dual FXR/PPARδ Activators” (J Med Chem, 2020).
Activity calls are given as the source filed them. The calls are words filed in the database; no cut-off is given here.

How the values were obtained:
[1] = biological target: T1, Peroxisome proliferator-activated receptor delta (Homo sapiens) (UniProt Q03181); assay: Activation of human PPAR-delta LBD expressed in HEK293T cells assessed as induction of receptor activation up to 10 uM incubated for 12 to 14 hrs by luciferase reporter gene assay; format: cell-based; settings: HEK-293T
T1 sequence (whole entry): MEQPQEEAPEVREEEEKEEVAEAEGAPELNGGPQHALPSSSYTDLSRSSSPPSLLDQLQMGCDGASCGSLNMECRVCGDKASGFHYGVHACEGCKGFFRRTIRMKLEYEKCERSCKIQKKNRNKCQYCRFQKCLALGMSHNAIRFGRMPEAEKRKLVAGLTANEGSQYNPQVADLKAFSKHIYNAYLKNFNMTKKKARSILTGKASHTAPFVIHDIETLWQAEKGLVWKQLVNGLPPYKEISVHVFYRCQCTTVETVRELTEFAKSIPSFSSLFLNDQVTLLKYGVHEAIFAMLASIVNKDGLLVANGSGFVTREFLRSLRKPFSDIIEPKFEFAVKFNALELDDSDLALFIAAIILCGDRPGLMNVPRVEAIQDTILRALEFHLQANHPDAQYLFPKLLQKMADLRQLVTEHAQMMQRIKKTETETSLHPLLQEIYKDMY

[2] = tested on: HepG2; assay: Toxicity in human HepG2 cells assessed as reduction in cell viability up to 100 uM incubated for 48 hrs by WST1 assay; format: cell-based; settings: hepg2, 48 h
[3] = biological target: T2, Bile acid receptor (Homo sapiens) (UniProt Q96RI1); assay: Activation of human FXR LBD expressed in HEK293T cells assessed as induction of receptor activation at 1 uM incubated for 12 to 14 hrs by luciferase reporter gene assay; settings: HEK-293T
T2 sequence (whole entry): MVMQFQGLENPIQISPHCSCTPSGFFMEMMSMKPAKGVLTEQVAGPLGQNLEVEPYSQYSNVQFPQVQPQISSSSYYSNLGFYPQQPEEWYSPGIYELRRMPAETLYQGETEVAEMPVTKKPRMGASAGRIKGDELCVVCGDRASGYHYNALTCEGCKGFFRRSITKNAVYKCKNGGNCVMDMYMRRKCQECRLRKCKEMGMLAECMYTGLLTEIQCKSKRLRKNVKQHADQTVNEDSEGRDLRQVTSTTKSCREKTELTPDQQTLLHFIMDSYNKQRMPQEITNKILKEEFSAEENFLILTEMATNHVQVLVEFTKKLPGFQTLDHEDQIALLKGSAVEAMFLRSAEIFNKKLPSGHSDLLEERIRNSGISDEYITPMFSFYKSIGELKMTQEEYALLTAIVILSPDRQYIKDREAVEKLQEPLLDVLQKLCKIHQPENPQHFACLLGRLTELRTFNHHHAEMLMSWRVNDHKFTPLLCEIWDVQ

[4] = Aqueous solubility in pH 8 buffer by HPLC analysis; format: physicochemical
[5] = Stability in Sprague-Dawley rat liver microsomes assessed as remaining parent compound level at 10 uM presence of NADPH regenerating system by HPLC analysis; format: ADME, Microsome; settings: read-out: Stability
[6] = biological target: T1, Peroxisome proliferator-activated receptor delta (Homo sapiens); assay: Activation of human PPAR-delta LBD expressed in HEK293T cells assessed as induction of receptor activation at 1 uM incubated for 12 to 14 hrs by luciferase reporter gene assay relative to L165,041; format: cell-based; settings: HEK-293T
[7] = biological target: T3, Bile acid receptor (Homo sapiens, UniProt Q96RI1); assay: Activation of human FXR LBD expressed in HEK293T cells assessed as induction of receptor activation incubated for 12 to 14 hrs by luciferase reporter gene assay; format: cell-based, HEK-293T
T3 sequence (Q96RI1 whole entry): T2 sequence (whole entry)

[8] = biological target: T4, Peroxisome proliferator-activated receptor delta (Homo sapiens, UniProt Q03181); assay: Activation of human PPAR-delta LBD expressed in HEK293T cells assessed as induction of receptor activation incubated for 12 to 14 hrs by luciferase reporter gene assay; format: cell-based, HEK-293T
T4 sequence (Q03181 whole entry): T1 sequence (whole entry)

[9] = biological target: T2, Bile acid receptor (Homo sapiens); assay: Activation of human FXR LBD expressed in HEK293T cells assessed as induction of receptor activation at 1 uM incubated for 12 to 14 hrs by luciferase reporter gene assay relative to GW4064; format: cell-based; settings: HEK-293T
[10] = biological target: T2, Bile acid receptor (Homo sapiens); assay: Activation of human FXR LBD expressed in HEK293T cells assessed as induction of receptor activation at 30 uM incubated for 12 to 14 hrs by luciferase reporter gene assay; format: cell-based; settings: HEK-293T
[11] = biological target: T1, Peroxisome proliferator-activated receptor delta (Homo sapiens); assay: Activation of human PPAR-delta LBD expressed in HEK293T cells assessed as induction of receptor activation at 30 uM incubated for 12 to 14 hrs by luciferase reporter gene assay; format: cell-based; settings: HEK-293T
[12] = biological target: T1, Peroxisome proliferator-activated receptor delta (Homo sapiens); assay: Activation of human PPAR-delta LBD expressed in HEK293T cells assessed as induction of receptor activation at 1 uM incubated for 12 to 14 hrs by luciferase reporter gene assay; format: cell-based; settings: HEK-293T
[13] = biological target: T2, Bile acid receptor (Homo sapiens); assay: Activation of human FXR LBD expressed in HEK293T cells assessed as induction of receptor activation at 20 uM incubated for 12 to 14 hrs by luciferase reporter gene assay; format: cell-based; settings: HEK-293T
[14] = biological target: T1, Peroxisome proliferator-activated receptor delta (Homo sapiens); assay: Activation of human PPAR-delta LBD expressed in HEK293T cells assessed as induction of receptor activation at 20 uM incubated for 12 to 14 hrs by luciferase reporter gene assay; format: cell-based; settings: HEK-293T

%max [6] [%] | EC50 [7] [µM] | EC50 [8] [µM] | %max [9] [%] | Structure (SMILES) | other results
9 | 3.8 | 0.8 | 16 | CC(C)c1onc(-c2ccccc2Cl)c1COc1ccc(CCCC(=O)O)cc1 | –
17 | 2 | 3.1 | 37 | CC(C)c1onc(-c2c(Cl)cccc2Cl)c1COc1ccc(COc2ccc(CC(=O)O)cc2)cc1 | –
8.7 | 31 | 0.9 | 11 | CC(C)c1onc(-c2ccccc2)c1COc1ccc(CCCC(=O)O)cc1 | –
– | 7.7 | – | 15 | Cc1cccc(C)c1-c1noc(C(C)C)c1COc1ccc(CCCC(=O)O)cc1 | Activity [11]: inactive
15 | 0.8 | 1.8 | 117 | CC(C)c1onc(-c2c(Cl)cccc2Cl)c1COc1ccc(COc2ccc(CC(=O)O)cc2)c(Cl)c1 | –
15 | 1.6 | 3.6 | 29 | CC(C)c1onc(-c2c(Cl)cccc2Cl)c1COc1ccc(CNc2ccc(CC(=O)O)cc2)cc1 | –
15 | 6 | 0.7 | 51 | CC(C)c1onc(-c2c(Cl)cccc2Cl)c1COc1ccc(CCCC(=O)O)cc1 | –
15 | 1.2 | 9 | 37 | Cc1cc(NCc2ccc(OCc3c(-c4c(Cl)cccc4Cl)noc3C(C)C)cc2)ccc1CC(=O)O | –
– | > 30 | > 30 | – | CC(C)c1onc(-c2ccccc2)c1COc1ccc(CCCCC(=O)O)cc1 | –

Continued, molecule first:

Structure (SMILES) | %max [6] [%] | EC50 [7] [µM] | EC50 [8] [µM] | %max [9] [%] | other results
CC(C)c1onc(-c2c(Cl)cccc2Cl)c1COc1ccc(/C=C/c2cccc(C(=O)O)c2)c(Cl)c1 | – | – | – | – | Activity [1]: inactive; Activity [2]: Non-Toxic; Activity [3]: Active; solubility [4]: < 0.1 µg/mL; remaining at 10 µM [5]: 10%
CC(C)c1onc(-c2ccccc2)c1COc1ccc(COc2ccc(CC(=O)O)cc2)cc1 | 54 | 11 | 4.3 | 11 | –
CC(C)c1onc(-c2ccccc2)c1COc1ccc(COc2cccc(C(=O)O)c2)cc1 | – | – | > 30 | – | Activity [10]: inactive
CC(C)c1onc(-c2ccccc2)c1COc1ccc(Oc2ccc(C(=O)O)cc2)cc1 | – | 11 | – | 13 | Activity [11]: inactive
CCCc1c(OCCCOc2ccc(OCC(=O)O)cc2)ccc(C(C)=O)c1O | – | – | – | – | Activity [12]: Active
Cc1onc(-c2ccccc2)c1COc1ccc(CCCC(=O)O)cc1 | – | – | – | – | Activity [11]: inactive; Activity [10]: inactive
CC(C)c1onc(-c2ccccc2)c1COc1ccc(CCCCCC(=O)O)cc1 | – | – | > 10 | – | Activity [13]: inactive
CC(C)c1onc(-c2ccccc2Cl)c1COc1ccc(COc2ccc(C(C)(C)C(=O)O)cc2)cc1 | – | – | – | – | Activity [13]: inactive; Activity [14]: inactive
CC(C)c1onc(-c2ccccc2)c1COc1ccc(COc2ccc(CCC(=O)O)cc2)cc1 | 32 | – | 11 | – | Activity [13]: inactive
CC(C)c1onc(-c2ccccc2C(F)(F)F)c1COc1ccc(CCCC(=O)O)cc1 | – | 4.4 | > 30 | 37 | –
CC(C)c1onc(-c2ccccc2Cl)c1COc1ccc(COc2ccc(CC(=O)O)cc2)cc1 | 23 | 2.5 | 2 | 9 | –
CC(C)c1onc(-c2ccccc2Cl)c1COc1ccc(COc2ccc(OCC(=O)O)cc2)cc1 | 15 | 4.7 | 7.2 | 17 | –
CC(C)c1onc(-c2ccccc2)c1COc1ccc(COc2ccc(C(=O)O)cc2)cc1 | – | 2.3 | > 30 | 5.1 | –
